In ChEMBL document CHEMBL1157741, “Synthesis and antituberculosis activity of novel mefloquine-isoxazole carboxylic esters as prodrugs” (Bioorg Med Chem Lett, 2010):

Tested on: Mycobacterium tuberculosis
Test: Antimicrobial activity against Mycobacterium bovis BCG
Assay type: functional
Conditions: variant bovis BCG

| Compound | MIC [µM] |
| --- | --- |
| O=C(O)c1cc(COc2cc(C(F)(F)F)nc3c(C(F)(F)F)cccc23)on1 | > 128 |
| CCOC(=O)c1cc(COc2cc(C(F)(F)F)nc3c(C(F)(F)F)cccc23)on1 | < 0.5 |
